Assay results taken from patent publication US20150258168A1, “MODULATION OF PODOPLANIN MEDIATED PLATELET ACTIVATION” (OKLAHOMA MEDICAL RESEARCH FOUNDATION, priority 2012, published 2015).
Entries after “also recorded” stand apart in the source; their conditions may differ.

System: NE-Pdpn^−/− mice
Experiment: tMCAO-induced ischemia/reperfusion, brain bleeding and Evans blue leakage
Format: in vivo
Details: NE-Pdpn^−/− mice after tMCAO (1.5 hr ischemia and 24 hr reperfusion), 100 mg/kg body weight, i.p., n=2/group, pilot experiment
Description: FIG. 12. […] Gross images of cronal sections of NE− Pdpn^−/− brains. The mice (6-wks-old) were treated either with SEW2871 or DMSO (solvent of SEW2871) immediately after reperfusion. 24 hrs after the reperfusion, mice were intravenously injected with Evans blue, sacrificed and immediately perfused with saline and 4% PFA. Arrows show bleeding. Asterisks show leakage of Evans blue. R, right side (tMCAO side).
To determine the role of PDPN in astrocytes in protecting vascular integrity in the adult brain after injury, the inventor has have established a transient middle cerebral artery occlusion (tMCAO)-induced ischemia/reperfusion model that is widely accepted as a model for secondary hemorrhage in human patients with ischemic stroke (Fan et al., 2010). […] In addition, he will include Magnetic Resonance Imaging (MRI) to detect early hemorrhage, monitor its progress, and quantify bleeding volume (every 10 h). […]
The S1P receptor S1P1 is highly expressed on vascular endothelial cells (Kono et al., 2004). […] Cerebral vascular permeability/edema will be detected by intravenous injection of Evans blue and the wet/dry ratio of the brains. Vascular integrity will be analyzed by confocal imaging and/or TEM as described in C1.3.3. […]

For `FC(F)(F)c1cccc(-c2noc(-c3cc(-c4ccccc4)c(C(F)(F)F)s3)n2)c1` [SEW2871], the vascular leakage (Evans blue) was “ameliorated” and the brain bleeding (100 mg/kg) was “ameliorated; also recorded: ameliorates brain bleeding”.
